Among the test systems are NCI-H522 lung; HT29 colon; HCC-2998 colon; HOP-62 NSCLC; ACHN renal; MDA-MB-435; OVCAR-4 ovarian; TK-10 renal; RXF 393 renal; LOX IMVI melanoma.
What all share (assay): DTP human tumour cell line panel, 48 h

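The compound was tested at five concentrations on cells cultured in 96-well plates, with a 48-hour exposure period. GI50: concentration for 50% inhibition of growth. The concentration for full growth arrest is given as TGI.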

Broadly, the TGI is the concentration giving total growth inhibition. Read a low TGI as greater sensitivity of the cells. As usually defined, the GI50 is the concentration giving 50% growth inhibition.

`COc1cc(NC(C)CCCN)c2nccc(C)c2c1` (stereo unspecified): the total growth inhibition concentration (TGI) with NCI-H522 lung is 33.3 µM; in the test with HT29 colon it was > 100 µM; in the test with HCC-2998 colon, 38.7 µM; in the test with HOP-62 NSCLC it was 34 µM; in the test with ACHN renal it was 74.6 µM; with MDA-MB-435, 30.4 µM. The TGI was found to be 59.9 µM in the test on OVCAR-4 ovarian and 63.5 µM in the test on TK-10 renal.

With `CCn1c(-c2ccc(OC(C)=O)cc2)c(C)c2cc(OC(C)=O)ccc21`, the TGI in the test on NCI-H522 lung was 40 µM; in the test with HT29 colon, 89.6 µM; with RXF 393 renal, 25.6 µM; in the test with HOP-62 NSCLC, 47.7 µM; in the test with ACHN renal, > 100 µM; in the test on MDA-MB-435, 33.7 µM. The results for the TGI in the test on LOX IMVI melanoma, with OVCAR-4 ovarian and in the test on TK-10 renal were 30.6 µM, 59.8 µM and 74.3 µM, respectively.

As for `Nc1ccn(C2CCC(CO)O2)c(=O)n1` (stereo unspecified), the TGI in the test with NCI-H522 lung, with HT29 colon, in the test on HCC-2998 colon, with HOP-62 NSCLC, in the test on ACHN renal and in the test with MDA-MB-435 was > 1000 µM in each case. Besides, the concentration for total growth inhibition (TGI) with LOX IMVI melanoma, in the test on OVCAR-4 ovarian and in the test on TK-10 renal was > 1000 µM in each case. In addition, the GI50 with HT29 colon, with HCC-2998 colon, in the test with HOP-62 NSCLC, in the test on LOX IMVI melanoma and with OVCAR-4 ovarian was > 1000 µM in each case.

For `CC(=O)C(=CN1CCN(C(=O)c2ccco2)C1=S)C(C)=O`, the GI50 was 17.1 µM in the test on HT29 colon; 1.84 µM in the test with RXF 393 renal; 22 µM in the test with HOP-62 NSCLC; 2.87 µM in the test with ACHN renal; 12.6 µM with MDA-MB-435; 2.12 µM in the test with LOX IMVI melanoma. Besides, the GI50 in the test with OVCAR-4 ovarian was 10.6 µM; in the test on TK-10 renal, 4.19 µM. The TGI in the test on HT29 colon was determined as 53.8 µM; with RXF 393 renal it was 6.24 µM; in the test on HOP-62 NSCLC, 41.7 µM; in the test on ACHN renal it was 8.04 µM; in the test with MDA-MB-435 it was 49 µM; in the test on LOX IMVI melanoma, 4.62 µM. The total growth inhibition concentration (TGI) with OVCAR-4 ovarian turned out to be 32.7 µM; in the test on TK-10 renal, 14.3 µM.

Regarding `COc1ccc(/C=C/c2cc(OC)cc(=O)o2)cc1`, the TGI in the test on HT29 colon, in the test with HCC-2998 colon, in the test with RXF 393 renal, in the test with HOP-62 NSCLC, in the test on ACHN renal and in the test with MDA-MB-435 was > 100 µM in each case. The TGI with LOX IMVI melanoma, in the test with OVCAR-4 ovarian and in the test on TK-10 renal was > 100 µM throughout.

Regarding `Clc1ccc(C=Nc2ccc3c(c2)Cc2ccccc2-3)c(Cl)c1`, the TGI in the test with NCI-H522 lung, with HT29 colon, with RXF 393 renal, in the test with HOP-62 NSCLC, with ACHN renal and in the test on MDA-MB-435 was > 100 µM each time. Further, the total growth inhibition concentration (TGI) with LOX IMVI melanoma, with OVCAR-4 ovarian and with TK-10 renal was > 100 µM throughout.

On to `O=C(/C=C\c1ccc(NCc2ccc(C(=O)O)cc2)cc1)CCl`, for which the GI50 was 1.65 µM in the test on NCI-H522 lung; 18.9 µM in the test with HT29 colon; 15.5 µM in the test with HOP-62 NSCLC; 16.1 µM in the test with ACHN renal; 15.8 µM in the test on MDA-MB-435; 2.17 µM with LOX IMVI melanoma. For the same compound, in the test on OVCAR-4 ovarian, the GI50 is 13.9 µM. The TGI in the test on NCI-H522 lung was found to be 3.24 µM; with HT29 colon, 37.8 µM; with HOP-62 NSCLC, 29.6 µM; with ACHN renal, 31.6 µM; in the test with MDA-MB-435, 31.9 µM; in the test with LOX IMVI melanoma it was 5.12 µM. Besides, in the test on OVCAR-4 ovarian, the TGI is 26.9 µM.

Consider `Cc1ccc(-c2nc3ccc(Cl)cc3c(=O)n2N2C(=O)CSC2c2ccccc2Cl)cc1` (stereo unspecified), for which the GI50 in the test with HT29 colon was 60.2 µM; with HCC-2998 colon, > 100 µM; in the test on RXF 393 renal, 6.46 µM; in the test on HOP-62 NSCLC, 1.98 µM; in the test with ACHN renal it was 0.627 µM; in the test with MDA-MB-435, > 100 µM. Also, the GI50 in the test with LOX IMVI melanoma is 70.1 µM; in the test with OVCAR-4 ovarian, 4.54 µM. The total growth inhibition concentration (TGI) with HT29 colon was > 100 µM; in the test on HCC-2998 colon, > 100 µM; in the test on RXF 393 renal, > 100 µM; with HOP-62 NSCLC, 5.09 µM; with ACHN renal, > 100 µM; in the test on MDA-MB-435, > 100 µM. For the same compound, the TGI in the test with LOX IMVI melanoma and in the test on OVCAR-4 ovarian was > 100 µM in each case.

Consider `COc1cc(/C=C/c2ccc(OC)c(OC)c2)cc(OC)c1`, for which the TGI in the test with NCI-H522 lung is 66.4 µM; in the test with HT29 colon it was 94.4 µM; in the test with RXF 393 renal it was 50 µM; in the test with HOP-62 NSCLC, > 100 µM; in the test with ACHN renal, 89.8 µM; with MDA-MB-435, > 100 µM. In addition, the values for the total growth inhibition concentration (TGI) in the test with LOX IMVI melanoma, with OVCAR-4 ovarian and with TK-10 renal were 41.8 µM, > 100 µM and > 100 µM, respectively.

For `Cn1c2ccccc2c(=O)c2ccc(Cl)cc21`, the concentration for total growth inhibition (TGI) in the test with HT29 colon, in the test with HCC-2998 colon, in the test on RXF 393 renal, in the test with HOP-62 NSCLC, with MDA-MB-435 and in the test with LOX IMVI melanoma was > 10 µM in each case. For the same compound, the TGI in the test on OVCAR-4 ovarian and with TK-10 renal was > 10 µM in each case.

With `COc1ccc(C(=O)COc2ccc(/C=C3\COc4ccc(OC)cc4C3=O)cc2)cc1`, the GI50 with NCI-H522 lung was 16.7 µM; in the test on HT29 colon, 22.2 µM; in the test with RXF 393 renal, 21.2 µM; in the test with HOP-62 NSCLC it was 24.8 µM; in the test with ACHN renal, 29.7 µM; in the test on MDA-MB-435 it was 6.46 µM. Also, the GI50 in the test on LOX IMVI melanoma was 6.59 µM; in the test on OVCAR-4 ovarian, 17.4 µM; in the test on TK-10 renal, 19.1 µM. In addition, the TGI is 74.5 µM with NCI-H522 lung; > 100 µM in the test on HT29 colon; 47.6 µM with RXF 393 renal; 47.7 µM in the test on HOP-62 NSCLC; > 100 µM with ACHN renal; 78.5 µM in the test on MDA-MB-435. Moreover, the total growth inhibition concentration (TGI) was determined as 24.2 µM in the test with LOX IMVI melanoma, 69.2 µM with OVCAR-4 ovarian and 48.7 µM in the test on TK-10 renal.

In the case of `COc1ccc(CCN2COc3c([C@@H](C)CCC=C(C)C)ccc(C)c3C2)cc1OC`, the GI50 in the test with HT29 colon was 2.2 µM; in the test on HCC-2998 colon, 1.59 µM; with RXF 393 renal, 1.73 µM; with HOP-62 NSCLC, 1.86 µM; in the test on ACHN renal, 6.11 µM; in the test on MDA-MB-435 it was 3.11 µM. The GI50 is 1.77 µM in the test with LOX IMVI melanoma, 2.99 µM in the test on OVCAR-4 ovarian and 2.19 µM with TK-10 renal. The TGI with HT29 colon stood at 5.73 µM; in the test with HCC-2998 colon, 2.96 µM; in the test with RXF 393 renal, 4.85 µM; with HOP-62 NSCLC, 3.62 µM; with ACHN renal, 20.2 µM; in the test on MDA-MB-435, 10.9 µM. Further, the results for the concentration for total growth inhibition (TGI) with LOX IMVI melanoma, with OVCAR-4 ovarian and in the test on TK-10 renal were 3.75 µM, 16 µM and 5.95 µM, respectively.

With `O=C1CC2c3ccccc3CCC2c2ccccc21` (stereo unspecified), the TGI was 46.7 µM with NCI-H522 lung; 30.6 µM in the test with HT29 colon; 50.5 µM with HCC-2998 colon; > 100 µM in the test on HOP-62 NSCLC; > 100 µM in the test on ACHN renal; 98.6 µM with MDA-MB-435. Further, the TGI in the test with LOX IMVI melanoma is 34.3 µM; in the test with TK-10 renal it was > 100 µM.

With `COc1cc2[nH]c(C(=O)c3cc(OC)c(OC)c(OC)c3)c(N)c2cc1C#CC1CC1`, the GI50 in the test with HT29 colon is 3.38 µM; in the test on HCC-2998 colon, 20.1 µM; with HOP-62 NSCLC, 2.64 µM; in the test on ACHN renal, 1.3 µM; in the test with MDA-MB-435, 0.332 µM; with LOX IMVI melanoma, 4.33 µM. For the same compound, the GI50 with OVCAR-4 ovarian is 4.01 µM; in the test with TK-10 renal, 40 µM. In addition, the TGI is 28 µM in the test on HT29 colon; > 100 µM in the test with HCC-2998 colon; > 100 µM in the test on HOP-62 NSCLC; > 100 µM in the test with ACHN renal; 1.17 µM in the test with MDA-MB-435; > 100 µM with LOX IMVI melanoma. The TGI in the test on OVCAR-4 ovarian and in the test with TK-10 renal was > 100 µM each time.

As to `CC(CO)(CO)NCCCCn1ccc2c1C(=O)c1c(c(O)c3ccccc3c1O)C2=O`, the GI50 is 6.2 µM with HCC-2998 colon; 4.49 µM in the test with RXF 393 renal; 14 µM in the test with HOP-62 NSCLC; 6.27 µM with ACHN renal; 1.76 µM in the test on MDA-MB-435; 1.51 µM with TK-10 renal. Also, the TGI in the test with HCC-2998 colon is 20.9 µM; with RXF 393 renal, 31.7 µM; in the test with HOP-62 NSCLC, 28.9 µM; in the test on ACHN renal it was > 100 µM; in the test with MDA-MB-435, 3.56 µM; in the test on TK-10 renal, 4.57 µM.

On to `O=c1cccc(C#CC#CC2=CCCCC2)o1`, for which the GI50 in the test with NCI-H522 lung is 4.03 µM; in the test on HT29 colon, 14 µM; in the test with RXF 393 renal, 2.69 µM; in the test with HOP-62 NSCLC, 8.65 µM; in the test with ACHN renal, 4.49 µM; in the test with MDA-MB-435 it was 4 µM. In addition, the GI50 in the test on LOX IMVI melanoma is 3.09 µM; in the test with OVCAR-4 ovarian it was 28 µM; in the test on TK-10 renal, 8.69 µM. For the same compound, the concentration for total growth inhibition (TGI) is 10.9 µM with NCI-H522 lung; > 100 µM with HT29 colon; 5.57 µM in the test on RXF 393 renal; 16.3 µM in the test on HOP-62 NSCLC; 10 µM in the test with ACHN renal; 10.4 µM in the test with MDA-MB-435. For the same compound, the total growth inhibition concentration (TGI) with OVCAR-4 ovarian is > 49.3 µM; in the test with TK-10 renal, 14.2 µM.

(Values after PubChem BioAssay (NCI).)
